# Biological target: T1, ligand binding domain of human ROR gamma (Homo sapiens, UniProt P51449)
# T1 construct: NM_001001523; expressed in transfected cells; host or cells: HEK293T
# T1 sequence (P51449 247-497 isoform P51449-2): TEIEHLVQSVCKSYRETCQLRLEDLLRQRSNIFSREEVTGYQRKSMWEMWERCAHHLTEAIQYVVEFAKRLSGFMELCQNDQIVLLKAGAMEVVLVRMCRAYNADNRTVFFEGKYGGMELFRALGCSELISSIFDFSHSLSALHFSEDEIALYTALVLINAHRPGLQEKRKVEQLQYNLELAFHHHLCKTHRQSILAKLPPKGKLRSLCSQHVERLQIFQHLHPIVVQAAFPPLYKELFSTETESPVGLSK
# Assay: ROR gamma reporter gene assay (GAL4-RORγ LBD luciferase, Dual-Glo)
# Assay type: cell-based
# Conditions: HEK293T cells transfected with pM-ROR gamma, 8 concentrations 3.5 nM to 10.5 μM, 24 h incubation; read-out: result (pIC50, inhibition of RORγ transcriptional activity) (converted)
# How it was run: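 Inhibition of RORγ-driven transcription was measured in HEK293T cells expressing a GAL4 fusion of the human RORγ LBD (aa 247-497), with renilla luciferase as internal control. Cells in 10% charcoal-stripped serum received compound (3.5 nM–10.5 μM) for 24 h.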
row,Structure (SMILES),IC50
1,"O=C(CN(Cc1cc(F)cc(F)c1)C(=O)c1cnn([C@H]2CC[C@H](C(=O)O)CC2)c1C(F)(F)F)c1c(Cl)cc(O)cc1Cl [Example 70, trans-4-(4-((2-(2,6-dichloro-4-hydroxyphenyl)-2-oxoethyl)(3,5-difluorobenzyl)carbarnoyl)-5-(trifluoromethyl)-1H-pyrazol-1-yl)cyclohexanecarboxylic acid]",> 1e+07 pM
2,"O=C(CN(Cc1cc(F)cc(F)c1)C(=O)c1cnn([C@H]2CC[C@H](C(=O)O)CC2)c1C(F)(F)F)c1c(Cl)cc(C(F)F)cc1Cl [Example 18, trans-4-(4-((2-(2,6-dichloro-4-(difluoromethyl)phenyl)-2-oxoethyl)(3,5-difluorobenzyl)carbamoyl)-5-(trifluoromethyl)-1H-pyrazol-1-yl)cyclohexanecarboxylic acid]",11700 pM
3,"O=C(CN(Cc1cc(F)cc(F)c1)C(=O)c1cnn([C@H]2CC[C@H](C(=O)O)CC2)c1C1CC1)c1c(Cl)cncc1Cl [Example 17, trans-4-(5-cyclopropyl-4-((2-(3,5-dichloropyridin-4-yl)-2-oxoethyl)(3,5-difluorobenzyl)carbamoyl)-1H-pyrazol-1-yl)cyclohexanecarboxylic acid]",24500 pM
4,"CC1(O)CCC(CN(CC(=O)c2c(Cl)cncc2Cl)C(=O)c2cnn([C@H]3CC[C@H](C(=O)O)CC3)c2C(F)(F)F)CC1 (stereo partly drawn) [Example 19, trans-4-(4-((2-(3,5-dichloropyridin-4-yl)-2-oxoethyl)((4-hydroxy-4-methylcyclohexyl)methyl)carbamoyl)-5-(trifluoromethyl)-1H-pyrazol-1-yl)cyclohexanecarboxylic acid]",> 1e+07 pM
5,"O=C(CN(CC1CCOCC1)C(=O)c1cnn([C@H]2CC[C@H](C(=O)O)CC2)c1C(F)(F)F)c1c(Cl)cncc1Cl [Example 71, trans-4-(4-((2-(3,5-dichloropyridin-4-yl)-2-oxoethyl)((tetrahydro-2H-pyran-4-yl)methyl)carbamoyl)-5-(trifluoromethyl)-1H-pyrazol-1-yl)cyclohexanecarboxylic acid]",2.09e+06 pM
6,"COc1cc(Cl)c(C(=O)CN(Cc2cc(F)cc(F)c2)C(=O)c2cnn([C@H]3CC[C@H](C(=O)O)CC3)c2C(F)(F)F)c(Cl)c1 [Example 67, trans-4-(4-((2-(2,6-dichloro-4-methoxyphenyl)-2-oxoethyl)(3,5-dffluorobenzyl)carbamoyl)-5-(trifluoromethyl)-1H-pyrazol-1-yl)cyclohexanecarboxylic acid]",56200 pM
7,"O=C(CN(Cc1cc(F)cc(F)c1)C(=O)c1cnn([C@H]2CC[C@H](C(=O)O)CC2)c1C(F)(F)F)c1cc(Cl)cc(Cl)c1 [Example 59, trans-4-(4-((2-(3,5-dichlorophenyl)-2-oxoethyl)(3,5-difluorobenzyl)carbamoyl)-5-(trifluoromethyl)-1H-pyrazol-1-yl)cyclohexanecarboxylic acid]",5.89e+06 pM
8,"Cc1csc(C)c1C(=O)CN(Cc1cc(F)cc(F)c1)C(=O)c1cnn([C@H]2CC[C@H](C(=O)O)CC2)c1C(F)(F)F [Example 3, trans-4-(4-((3,5-difluorobenzyl)(2-(2,4-dimethylthiophen-3-yl)-2-oxoethyl)carbamoyl)-5-(trifluoromethyl)-1H-pyrazol-1-yl)cyclohexanecarboxylic acid]",> 1e+07 pM
9,"O=C(CN(CC1CCCCC1)C(=O)c1cnn([C@H]2CC[C@H](C(=O)O)CC2)c1C(F)(F)F)c1c(Cl)cncc1Cl [Example 30, trans-4-(4-((cyclohexylmethyl)(2-(3,5-dichloropyridin-4-yl)-2-oxoethyl)carbamoyl)-5-(trifluoromethyl)-1H-pyrazol-1-yl)cyclohexanecarboxylic acid]",46800 pM
10,"C[S+](=O)([O-])[C@H]1CC[C@H](n2ncc(C(=O)N(CC(=O)c3c(Cl)cncc3Cl)Cc3ccc(F)cc3)c2C(F)(F)F)CC1 [Example 87, N-(2-(3,5-dichloropyridin-4-yl)-2-oxoethyl)-N-(4-fluorobenzyl)-1-(trans-4-(methylsulfonyl)cyclohexyl)-5-(trifluoromethyl)-1H-pyrazole-4-carboxamide]",141000 pM

# The next lines start with the values.
row,IC50,Structure (SMILES)
1,83200 pM,"CC1(C)[C@@H]2C[C@H](N(CCc3c[nH]c4cncc(Cl)c34)C(=O)c3cnn([C@H]4CC[C@](C)(C(=O)O)CC4)c3C(F)(F)F)C[C@@H]21 [Example 380, trans-4-(4-((2-(4-chloro-1H -pyrrolo(2,3-c)pyridin-3-yl)ethyl)((1R,3r,5S)-6,6-dimethylbicyclo[3.1.0]hexan-3-yl)carbamoyl)-5-(trifluoromethyl)-1H-pyrazol-1-yl)-1-methylcyclohexanecarboxylic acid]"
2,< 3470 pM,"CC1(C)CCC(CN(CC(=O)c2c(Cl)cc(Cl)cc2Cl)C(=O)c2cnn([C@H]3CC[C@](C)(C(=O)O)CC3)c2C(F)(F)F)CC1 [Example 239, trans-4-(4-((4,4-dimethylcyclohexyl)methyl-(2-oxo-2-(2,4,6-trichlorophenyl)ethyl)carbamoyl)-5-(trifluoromethyl)pyrazol-1-yl)-1-methylcyclohexane-1-carboxylic acid]"
3,14800 pM,"CCC(C)(C)CN(CC(=O)c1c(Cl)cc(F)cc1Cl)C(=O)c1cnn([C@H]2CC[C@](C)(C(=O)O)CC2)c1C(F)(F)F [Example 302, trans-4-(4-((2-(2,6-dichloro-4-fluorophenyl)-2-oxoethyl)-(2,2-dimethylbutyl)carbamoyl)-5-(trifluoromethyl)pyrazol-1-yl)-1-methylcyclohexane-1-carboxylic acid]"
4,155000 pM,"CC(C)(C)SCCN(CC(=O)c1c(Cl)cc(F)cc1Cl)C(=O)c1cnn([C@H]2CC[C@](C)(C(=O)O)CC2)c1C(F)(F)F [Example 348, trans-4-(4-(2-tert-butylsulfanylethyl-(2-(2,6-dichloro-4-fluorophenyl)-2-oxoethyl)carbamoyl)-5-(trifluoromethyl)pyrazol-1-yl)-1-methylcyclohexane-1-carboxylic acid]"
5,479000 pM,"Cc1ncc(Cl)c(C(O)CN(C(=O)c2cnn([C@H]3CC[C@](C)(C(=O)O)CC3)c2C(F)(F)F)[C@H]2C[C@@H]3[C@H](C2)C3(C)C)n1 (stereo partly drawn) [Example 407, trans-4-(4-((2-(5-chloro-2-methylpyrimidin-4-yl)-2-hydroxyethyl)((1R,3r,5S)-6,6-dimethylbicyclo[3.1.0]hexan-3-yl)carbamoyl)-5-(trifluoromethyl)-1H-pyrazol-1-yl)-1-methylcyclohexanecarboxylic acid]"
6,> 1e+07 pM,"O=C(O)c1cc(Cl)c(C(=O)CN(Cc2cc(F)cc(F)c2)C(=O)c2cnn([C@H]3CC[C@H](C(=O)O)CC3)c2C(F)(F)F)c(Cl)c1 [Example 98, trans-4-(2-((1-(4-carboxycyclohexyl)-5-(trifluoromethyl)pyrazole-4-carbonyl)-((3,5-difluorophenyl)methyl)amino)acetyl)-3,5-dichlorobenzoic acid]"
7,224000 pM,"CC1(C)[C@@H]2C[C@H](N(CC(O)c3ccsc3Cl)C(=O)c3cnn([C@H]4CC[C@](C)(C(=O)O)CC4)c3C(F)(F)F)C[C@@H]21 (stereo partly drawn) [Example 411, trans-4-(4-((2-(2-chlorothiophen-3-yl)-2-hydroxyethyl)((1R,3r,5S)-6,6-dimethylbicyclo[3.1.0]hexan-3-yl)carbamoyl)-5-(trifluoromethyl)-1H-pyrazol-1-y1)-1-methylcyclohexanecarboxylic acid]"
8,87100 pM,"CC1(C)[C@@H]2C[C@H](N(CC(O)c3c(Cl)cccc3OC(F)F)C(=O)c3cnn([C@H]4CC[C@](C)(C(=O)O)CC4)c3C(F)(F)F)C[C@@H]21 (stereo partly drawn) [Example 399, trans-4-(4-((2-(2-chloro-6-(difluoromethoxy)phenyl)-2-hydroxyethyl)((1R,3r,5S)-6,6-dimethylbicyclo[3.1.0]hexan-3-yl)carbamoyl)-5-(trifluoromethyl)-1H-pyrazol-1-yl)-1-methylcyclohexanecarboxylic acid]"
9,178000 pM,"N#Cc1cccc(CN(CC(=O)c2c(Cl)cncc2Cl)C(=O)c2cnn([C@H]3CC[C@H](C(=O)O)CC3)c2C(F)(F)F)c1 [Example 170, trans-4-(4-((3-cyanophenyl)methyl-(2-(3,5-dichloropyridin-4-yl)-2-oxoethyl)carbamoyl)-5-(trifluoromethyl)pyrazol-1-yl)cyclohexane-1-carboxylic acid]"
10,13200 pM,"C[C@]1(C(=O)O)CC[C@H](n2ncc(C(=O)N(CC(=O)c3c(Cl)cccc3C(F)(F)F)CC3CC4(CC4)C3)c2C(F)(F)F)CC1 [Example 235, trans-4-(4-((2-(2-chloro-6-(trifluoromethyl)phenyl)-2-oxoethyl)-(spiro[2.3]hexan-5-ylmethyl)carbamoyl)-5-(trifluoromethyl)pyrazol-1-yl)-1-methylcyclohexane-1-carboxylic acid]"
11,102000 pM,"CC(C)(F)CN(CC(=O)c1c(Cl)cncc1Cl)C(=O)c1cnn([C@H]2CC[C@](C)(C(=O)O)CC2)c1C(F)(F)F [Example 326, trans-4-(4-((2-(3,5-dichloropyridin-4-yl)-2-oxoethyl)-(2-fluoro-2-methylpropyl)carbamoyl)-5-(trifluoromethyl)pyrazol-1-yl)-1-methylcyclohexane-1-carboxylic acid]"
12,11200 pM,"C[C@]1(C(=O)O)CC[C@H](n2ncc(C(=O)N(CC(=O)c3c(Cl)cncc3Cl)CC3(F)CCCC3)c2C(F)(F)F)CC1 [Example 272, trans-4-(4-((2-(3,5-dichloropyridin-4-yl)-2-oxoethyl)-((1-fluorocyclopentyl)methyl)carbamoyl)-5-(trifluoromethyl)pyrazol-1-yl)-1-methylcyclohexane-1-carboxylic acid]"

# — patent US9365522B2, “Pyrazole amide derivative” (AMGEN INC., priority 2015, dated 2016)
